Laboratory results reported in patent US10105303B2, “Oral care composition comprising zinc amino acid halides” (Colgate-Palmolive Company, priority 2012, dated 2018).
“And” between values parts separate entries of the source, which are not always exact repeats. Equal entries are not always repeated.

Columns and labels:
[1] = Deposition/occlusion assay on dentine slices, confocal imaging; parameters: species or system human; conditions: for Thickness of surface deposits: 16-fold dilution
Procedure: The deposition/occlusion assay is conducted using human dentine slices and the neat solution of Example 5. The dentine slices were prepared by cutting human tooth into thin dentine sections of about 800 microns in thickness, choosing a test side, sanding said test side using a sandpaper of about 600 grit, polishing said test side using a Buehler polishing cloth and 5 micron Buehler aluminum oxide, acid-etching said dentine section in 1% (by weight) citric acid solution for about 20 seconds, sonicating said dentine section for 10 minutes, and storing said dentine section in phosphate buffered saline (PBS, pH 7.4).
For treatment, the neat solution is diluted 16-fold with water, yielding a treatment solution with initial zinc concentration of about 0.149% by weight. The dentine section is immersed in the treatment solution for 1 hour at 37° C. The treated dentine section is then removed from the treatment solution, and rinsed 4 times, each time with 1 mL of PBS. The dentine section is then dried using a paper-based tissue and examined under confocal microscope in both XYZ and XYZ modes. Subsequent treatments are conducted in the same manner.
Dentine sections, as prepared in Example 6, are repeatedly treated with ZLC dilutions with initial zinc concentration of 0.0747% by weight. […] The dentine section is examined under the confocal microscope after each treatment.

[2] = Dilution experiment of ZLC neat solution: visible flocculation/precipitation and pH; type: physicochemical; conditions: for final pH value: diluted sample
Procedure: Various dilutions of ZLC are prepared to evaluate its efficiency in producing visible precipitates and/or flocculation, which can be delivered in situ onto an oral surface or into a dental opening, such as open tubules.
A neat solution of ZLC is prepared by 1), reacting 0.5 mole of ZnO powder with 1 mole of lysine HCl in 1 liter of water at room temperature for about 2 hours, and 2) collecting the supernatant through centrifugation followed by filtration using a 0.45 micron membrane. The neat solution has a zinc concentration of 2.39% by weight, and a pH of about 7.03.
Dilution experiment is conducted by mixing the neat solution with deionized water. The neat solution is diluted by 2×, 4×, 6×, 7×, 8×, 10×, 12×, 16×, 20×, 24×, 28×, and 32×, corresponding to initial zinc concentrations of 1.20%, 0.598%, 0.398%, 0.341%, 0.299%, 0.239%, 0.199%, 0.149%, 0.120%, 0.0996%, 0.0854%, 0.0747%, by weight, respectively. The diluted samples are kept at 37° C., and the rates at which flocculation/precipitation occurred are monitored.
pH values of final diluted samples are suitable for oral care applications. […] These pH values were well within the range of 5.5 to 10, which defines the suitable range for oral care formulations.

Substance: [Zn(C6H14N2O2)2Cl]^+Cl^− [ZLC]
- Deposition and occlusion on dentine surface ([1]; after 4 consecutive treatments, 0.0747% zinc, 10 minutes each at 37° C.): significant surface deposition
- Deposition and occlusion on dentine surface ([1]; after 12 consecutive treatments, 0.0747% zinc, 10 minutes each at 37° C.): complete surface coverage
- Thickness of surface deposits ([1]; after second treatment, 1 hour at 37° C.): ≥ 10 microns
- Thickness of surface deposits ([1]; after third treatment, 1 hour at 37° C.): ≥ 25 microns
- Deposition and occlusion on dentine surface ([1]; first treatment, 16-fold dilution (about 0.149% zinc), 1 hour at 37° C.): noticeable deposition
- Visible precipitation during treatment ([1]; initial zinc concentration 0.0747%, 10 minutes at 37° C.): no precipitation is observed by naked eyes
- Deposition and occlusion on dentine surface ([1]; second treatment, 16-fold dilution (about 0.149% zinc), 1 hour at 37° C.): complete surface coverage, including blocking of substantially all tubule openings
- Deposition and occlusion on dentine surface ([1]; third treatment, 16-fold dilution (about 0.149% zinc), 1 hour at 37° C.): complete surface coverage and complete blocking of tubule openings
- Samples with flocculation and/or precipitation ([2]; after a total of 19 hours, 37° C.): all samples except the one with initial zinc concentration of 1.20%
- final pH value ([2]; initial zinc concentration 0.0747%): 7.99
- final pH value ([2]; initial zinc concentration 0.0854%): 8.13
- final pH value ([2]; initial zinc concentration 0.0996%): 8.11
- final pH value ([2]; initial zinc concentration 0.120%): 7.97
- final pH value ([2]; initial zinc concentration 0.149%): 7.99
- final pH value ([2]; initial zinc concentration 0.199 wt %): 6.80
- final pH value ([2]; initial zinc concentration 0.239%): 6.70
- pH of the neat solution ([2]; neat solution, zinc concentration 2.39% by weight): about 7.03
- Initial zinc concentration of the additional sample with flocculation ([2]; two hours after mixing, 37° C.): 0.299%
- Initial zinc concentrations of dilutions with visible flocculation ([2]; within 30 minutes from mixing with water, 37° C.): 0.149% and 0.199%
